≈ marks a conversion by molar mass, not a printed value.
Conditions: for aqueous solubility: pH 6.8

SMILES	intrinsic clearance, human liver microsomes	intrinsic clearance, rat liver microsomes	aqueous solubility	MDR1-MDCK efflux ratio	fraction unbound, human plasma	fraction unbound, rat plasma
CONC(=O)c1ccccc1Nc1cc(Nc2cc(C)nn2C(C)C)ncc1Cl	66.2 mL/min/kg	262 mL/min/kg	24.2 µg/mL (≈ 58.4 µM)	–	–	–
CN1CCN(c2ccc(NC(=O)c3ccc(S(=O)(=O)N4CCCc5ccccc54)cc3)cc2)CC1	526 mL/min/kg	727 mL/min/kg	10.1 µg/mL (≈ 20.6 µM)	8.78	–	–
CCc1nccn1Cc1nc(N)nc(N(C)C)n1	≤ 4.74 mL/min/kg	17.3 mL/min/kg	–	18.5	–	–
CSCc1csc(NC(C)=O)n1	19.2 mL/min/kg	248 mL/min/kg	27.9 µg/mL (≈ 138 µM)	0.631	–	–
N#Cc1cc(F)c(C(=O)Nc2ccnc(NC(=O)[C@H]3C[C@H]3F)c2)c(Cl)c1	≤ 4.74 mL/min/kg	–	67.5 µg/mL (≈ 179 µM)	42.6	–	–
COc1cccc(-c2nc(C(=O)O)cs2)c1OC	≤ 4.74 mL/min/kg	≤ 10.7 mL/min/kg	37.7 µg/mL (≈ 142 µM)	0.916	–	–
C#CCNC(=O)c1ccc(OC)c(OC)c1	–	–	26.9 µg/mL (≈ 123 µM)	–	–	–
CC(C)(C)c1csc(NC(=O)C2CC2)n1	20.2 mL/min/kg	89 mL/min/kg	29.2 µg/mL (≈ 130 µM)	0.634	–	–
COc1ccc(CNC(=O)c2sc3nc(C)cc(C)c3c2N)cc1	44.1 mL/min/kg	558 mL/min/kg	–	0.386	0.0044	0.00657
CCc1cc2c(N(C)CCO)ncnc2s1	73.6 mL/min/kg	139 mL/min/kg	40.9 µg/mL (≈ 172 µM)	0.676	–	–
O=C(CCN1CCN(C(=O)OCc2cc(Cl)cc(Cl)c2)CC1)c1ccc2[nH]c(=O)oc2c1	147 mL/min/kg	513 mL/min/kg	4.4 µg/mL (≈ 9.2 µM)	–	–	–
N#CC1(NC(=O)C2CCCCCC2)CC1	≤ 4.74 mL/min/kg	≤ 10.7 mL/min/kg	33.4 µg/mL (≈ 162 µM)	–	–	–
CN1C(=O)N(CC(=O)NCc2ccc(Cl)cc2)C(=O)C12CCCCC2	796 mL/min/kg	2110 mL/min/kg	50.7 µg/mL (≈ 139 µM)	5.53	–	–
Cc1ccc(NC(=O)OCC(F)(F)F)cn1	≤ 4.74 mL/min/kg	35.2 mL/min/kg	–	0.584	–	–
CNC(=O)c1ccc(-c2nnc(-c3cccc(C)c3)o2)cc1	–	–	0.21 µg/mL (≈ 0.716 µM)	–	–	–
CN(C)c1ncncc1NC(=O)c1ccc(C(F)(F)F)nc1	≤ 4.74 mL/min/kg	≤ 10.7 mL/min/kg	–	–	–	–
Cc1nc(C)c(C(=O)NCc2ncoc2C)s1	≤ 4.74 mL/min/kg	≤ 10.7 mL/min/kg	–	–	–	–

SMILES	intrinsic clearance, human liver microsomes	intrinsic clearance, rat liver microsomes	aqueous solubility	MDR1-MDCK efflux ratio	fraction unbound, human plasma	fraction unbound, rat plasma
CCn1c(-c2nonc2N)nc2cnc(Oc3cccc(NC(=O)c4ccc(OCCN5CCOCC5)cc4)c3)cc21	101 mL/min/kg	232 mL/min/kg	–	7.8	0.00355	0.00473
Cc1ccc(C)c(NC(=O)CN2CCCN(c3ccc(C(F)(F)F)cn3)CC2)c1	447 mL/min/kg	1940 mL/min/kg	11.9 µg/mL (≈ 29.4 µM)	0.959	–	–
COc1ccccc1-c1nc(-c2ccc(NC(C)=O)cc2)c(C)s1	–	–	0.73 µg/mL (≈ 2.16 µM)	–	–	–
O=C(Nc1ccc2c(c1)N(CC(F)F)C(=O)CS2)C1CC=CC1	52.6 mL/min/kg	391 mL/min/kg	–	0.742	–	–
COC(=O)N1CCCN(C(=O)C(=O)Nc2cccc(C(C)C)c2)CC1	66.2 mL/min/kg	1220 mL/min/kg	58.4 µg/mL (≈ 168 µM)	1.07	–	–
COc1cc2c(cc1OC)CN(C(=O)C1CCCN(C(=O)OC(C)(C)C)C1)CC2 (centres undefined)	106 mL/min/kg	643 mL/min/kg	61.9 µg/mL (≈ 153 µM)	1.79	–	–
COc1ccc(Nc2c(C#N)cnc3cc(OC)c(OC)cc23)cc1Cl	53.1 mL/min/kg	574 mL/min/kg	–	3.24	0.00925	0.0131
CC(C)Oc1ccc(C(=O)Nc2cccc(-c3nc4cnccc4o3)c2)cc1	–	–	0.54 µg/mL (≈ 1.45 µM)	–	–	–
CCc1noc(-c2ccc(CCN)cc2)n1	394 mL/min/kg	54.5 mL/min/kg	44.1 µg/mL (≈ 203 µM)	0.479	–	–
Nc1nc(CN2CCN(c3ccc(F)cc3)CC2)cs1	≤ 4.74 mL/min/kg	49.7 mL/min/kg	57 µg/mL (≈ 195 µM)	0.597	–	–
Cc1cc(Cl)n(-c2ccc(C#N)cc2)n1	105 mL/min/kg	310 mL/min/kg	–	0.465	–	–
CCCN(CCC1=CCCCC1)C(=O)Cc1n[nH]c(=O)[nH]1	≤ 4.74 mL/min/kg	1270 mL/min/kg	–	11.3	–	–
CC(C)c1ccc(NC(=O)c2ccc3nccnc3c2)cc1	29.1 mL/min/kg	608 mL/min/kg	4.96 µg/mL (≈ 17 µM)	–	–	–
O=C(c1ccc(O)cc1)N1CCN(c2ncnc3c2CCC3)CC1	12.1 mL/min/kg	178 mL/min/kg	–	43.2	–	–
Cc1ccc2occ(CN3C[C@H]4CCCN4C[C@H]3C)c(=O)c2c1	24 mL/min/kg	956 mL/min/kg	–	0.849	–	–
COc1cccc(-c2ccc(C(=O)N(C)Cc3c(C)nn(C(C)C)c3C)o2)c1	264 mL/min/kg	1960 mL/min/kg	47 µg/mL (≈ 123 µM)	1.47	–	–

Other lines, results leading:

intrinsic clearance, human liver microsomes	intrinsic clearance, rat liver microsomes	aqueous solubility	MDR1-MDCK efflux ratio	fraction unbound, human plasma	fraction unbound, rat plasma	SMILES
–	–	39.1 µg/mL (≈ 144 µM)	–	–	–	Cc1noc2nc(-c3ccccc3F)cc(C(=O)O)c12
24.9 mL/min/kg	228 mL/min/kg	–	–	–	–	CC(=O)N1CCc2c(sc(NC(=O)C(C)C)c2-c2nc3ccccc3s2)C1
≤ 4.74 mL/min/kg	36.9 mL/min/kg	–	–	–	–	Cc1nc(-c2ccncc2)cc(N2CCC(CO)CC2)n1
≤ 4.74 mL/min/kg	17.6 mL/min/kg	45.6 µg/mL (≈ 145 µM)	0.428	–	–	O=C(c1cc2ccccc2[nH]1)N1C[C@@H](O)[C@H](N2CCOCC2)C1
48.7 mL/min/kg	186 mL/min/kg	53.5 µg/mL (≈ 134 µM)	35	–	–	CCc1nnc(Nc2cccc(C3CCCN(CC(=O)N4CCCC4)C3)n2)s1 (centres undefined)
194 mL/min/kg	927 mL/min/kg	42.1 µg/mL (≈ 146 µM)	0.619	–	–	O=C(Cc1ccc2c(c1)OCCO2)NC1CCCCCC1
19.9 mL/min/kg	483 mL/min/kg	–	0.643	–	–	Cc1ncn(Cc2noc(-c3ccccc3O)n2)c1C
27.1 mL/min/kg	271 mL/min/kg	–	0.57	–	–	Cn1c(SCOCc2ccccc2)nnc1C1CC1
13.5 mL/min/kg	103 mL/min/kg	5.11 µg/mL (≈ 13.5 µM)	0.993	–	–	Cc1cccc(OC2CN(C(=O)Cn3c(C)nn(-c4ccccc4)c3=O)C2)c1
≤ 4.74 mL/min/kg	60.7 mL/min/kg	28.2 µg/mL (≈ 130 µM)	0.634	–	–	Cc1cccn(Cc2ccccc2F)c1=O
–	–	0.17 µg/mL (≈ 0.438 µM)	1.17	–	–	N#C/C(=C\c1cnn(Cc2ccccc2)c1)c1nc2cc(Cl)ccc2c(=O)[nH]1
≤ 4.74 mL/min/kg	45.1 mL/min/kg	–	1.2	–	–	CNCc1cc(NC)nc(C2CCCN2C(=O)COc2ccccc2OC)n1 (centres undefined)
10.5 mL/min/kg	74.5 mL/min/kg	1.88 µg/mL (≈ 4.43 µM)	4.03	–	–	COc1cc(CNc2nnn[nH]2)cc(Br)c1OCc1ccc(Cl)cc1
76.4 mL/min/kg	1010 mL/min/kg	–	–	–	–	Cc1cc(CSCc2ccc(C#N)cc2)no1
22.7 mL/min/kg	106 mL/min/kg	31 µg/mL (≈ 83.3 µM)	0.655	–	–	Cc1csc(N2CCN(Cc3ccc(OCC(F)(F)F)nc3)CC2)n1
73.8 mL/min/kg	429 mL/min/kg	2.61 µg/mL (≈ 8.6 µM)	0.442	–	–	COCc1ccccc1CNc1ccc2cc(C#N)ccc2n1
≤ 4.74 mL/min/kg	≤ 10.7 mL/min/kg	38.8 µg/mL (≈ 143 µM)	2.49	–	–	O=C(O)c1ccccc1-n1cnc(CN2CCCC2)c1
≤ 4.74 mL/min/kg	34.5 mL/min/kg	35.3 µg/mL (≈ 139 µM)	6.91	–	–	c1ccc2c(c1)CCN(Cc1nnc3n1CCC3)C2
≤ 4.74 mL/min/kg	90.1 mL/min/kg	–	–	–	–	Cc1ccc(=O)n(CC2(O)CCN(Cc3ccc4ccccc4n3)CC2)n1
≤ 4.74 mL/min/kg	56.5 mL/min/kg	–	–	–	–	CCCn1cc(CNc2ncccn2)cn1
107 mL/min/kg	320 mL/min/kg	39.7 µg/mL (≈ 88.4 µM)	36.2	–	–	Cc1cc2nc(CCC(=O)N3CCC(c4ccc(C(=O)N(C)C)c(N)n4)CC3)[nH]c2cc1C
70.4 mL/min/kg	381 mL/min/kg	23.8 µg/mL (≈ 73.7 µM)	6.42	–	–	CC(C)c1cc(N2CCc3[nH]nc(C4CC4)c3C2)n2nccc2n1
≤ 4.74 mL/min/kg	205 mL/min/kg	–	27.1	–	–	CC(C)C(=O)N1CCn2nc(CNC3CCc4ccccc4CC3)cc2C1
–	–	0.81 µg/mL (≈ 3.06 µM)	–	–	–	CN(C)c1nc(-c2cccc(-c3ccccc3)c2)n[nH]1
≤ 4.74 mL/min/kg	67.2 mL/min/kg	–	1.44	–	–	COc1cccc([C@@H](C)n2cnc3cn(C)nc3c2=O)c1
–	–	0.82 µg/mL (≈ 2.11 µM)	–	–	–	O=C(Nc1nc2ccccc2[nH]1)C1CC(=O)N(c2cccc(C(F)(F)F)c2)C1 (centres undefined)
≤ 4.74 mL/min/kg	35.2 mL/min/kg	37.4 µg/mL (≈ 181 µM)	0.615	–	–	OCCN1CCC(c2ccncn2)CC1

Source: the Biogen ADME set (Fang et al. 2023)
